Experimental data published in patent US10495627B2, “Apparatus and method for early diagnosis of cell death” (LYNCEE TEC S.A., priority 2010, dated 2019).
“Also recorded” adds a separate entry of the source.

Columns and labels:
[1] = tested on: primary cultures of mouse cortical neurons; test: Cell viability tested with trypan blue 0.4% reagent after glutamate stimulation; format: cell-based; conditions: for trypan blue staining / time at which nucleus was stained by trypan blue (cell death): 90 seconds; for time at which cell death was confirmed with trypan blue: 120 seconds
Method: (§1) In order to validate the measurement principle proposed in this application, the cell viability is also tested with trypan blue 0.4% reagent, to enable comparative measurements. The dye relies on probing the cell membrane integrity, which becomes permeable to the color compound at a certain level after cell death mechanisms started. After reagent wash-out, the cell nuclei of non-viable cells are consequently stained in blue, as the dye fixes on DNA material. Excitotoxic effects were studied during the experiments, by applying glutamate pulses at different concentration to the cells. The excitation solutions were prepared with concentrations ranging between 25 μM and 100 μM, depending on the type of experiment. Perfusion changes were performed by washing the chamber with a micropipette, making it possible to replace the perfusion medium through typically two washes of the medium.
In order to enable color measurement for cell viability assessment with the reagent, a flip mirror is inserted after the MO, so that the intensity image could also be recorded in focus with a color camera. When performing trypan blue staining, the illumination is changed to employ an incoherent halogen white light source to enable color measurement; this implies that during dye probing, no DHM measurement is performed, yielding part of unmeasured phase signal during time monitoring. Image merging between the two measurement techniques could be done through calibration of the system by imaging an object whose shape is well-known.
Brightfield color images of the culture, enabling the assessment through the trypan blue dye as a control experiment, are presented in FIGS. 4(b-c), respectively at t=30 min before the excitotoxic stimulation and t=290 min, where non viable cells are identified by the blue staining.

[2] = tested on: primary cultures of mouse cortical neurons; test: Mean phase value on cell bodies monitored over time by digital holographic microscopy (DHM) after glutamate-induced excitotoxic stimulation; format: cell-based
From the text: The particular implementation is a transmission DHM setup making possible to monitor cells in time through phase measurement. The sketch of the optical arrangement of the measurement setup is shown in FIG. 3, where the light emitted by a light source is split into two beams and recombined to generate an interference producing a hologram on the camera. […] Phase images are reconstructed by a numerical method for off-axis digital hologram reconstruction.
In the different experiments described below, the optical property, employed for cell death detection is the mean phase value measured on cell bodies and monitored during time. The phase value is intrinsically a relative measurement that has to be compared with a phase reference, usually taken as the phase shift induced by the perfusion medium. Physically, the phase value φ can thus be related to an optical path length (OPL) as
[formula] where the indices i and m correspond respectively to the intracellular content of the cell and to the perfusion medium, h is the height of the cell at position (x, y) and n is the mean refractive index (RI) along the optical axis. The phase is measured by calculating a spatial averaging of the phase value on a constant surface contained in the cell body, to which a reference phase value measured on a zone of the field of view containing no biological material has been subtracted.
The meaning of the phase measured with an interferometric method in this context is dependent on the height of the cell and on its intracellular RI. Therefore, the phase is linked both to the cell volume phenotype (through cell height), and to the intracellular content of cells phenotype (through RI), and thus indirectly to the osmotic regulation of the cell. The phase signal is therefore an indicator of cell volume regulation through both parameters, and can be indirectly linked to homeostasis through osmotic phenomena.
This particular study is performed on primary cultures of mouse cortical neurons, mounted on coverslips for optical measurement. Before experiment, coverslips are mounted on a perfusion chamber used to apply the different solutions to the cells, which are immersed in a HEPES-buffered standard physiological perfusion medium. As an example of application of cell death detection through volume regulation, we present in the following a detection of neuronal death induced through glutamate-induced excitotoxic stimulation, ultimately leading to cell death. The glutamate is a neurotransmitter activating neuronal receptors, leading under strong exposure to high level of intracellular calcium concentration, which can lead to death pathway triggering if not regulated properly.
as §1
The mean phase value measured on four cell bodies is shown in FIG. 4(a), where the reagent has been applied several times on the culture with an interval of approximately one hour. […]

[3] = glutamate 50 μM during 90 seconds, cell 4

N[C@@H](CCC(=O)O)C(=O)O [glutamate]
trypan blue staining ([1]; glutamate 25 μM, up to 4 hours and 30 minutes after stimulation): all cells being unstained
time at which nucleus was stained by trypan blue (cell death) ([1]; glutamate 50 μM, cell 1): 116 min
time at which nucleus was stained by trypan blue (cell death) ([1]; glutamate 50 μM, cell 2): 207 min
time at which nucleus was stained by trypan blue (cell death) ([1]; glutamate 50 μM, cell 3): 252 min
trypan blue staining ([1]; glutamate 50 μM, cell 4, several hours after exposure): remained unstained with a healthy morphology
time at which cell death was confirmed with trypan blue ([1]; glutamate 50 μM, cell 3): 385 min
time at which cell death was confirmed with trypan blue ([1]; glutamate 50 μM, cells 1 and 2): 323 min
phase variations [2, 3]: below 10 °
time to retrieve the same mean phase value [2, 3]: approximately 10 minutes
phase signal drop ([2]; glutamate 50 μM during 90 seconds, three of four cells (cells 1 to 3)): approximately 40 °
phase response ([2]; glutamate pulse 25 μM, 90 seconds, n=10 cells): reversible responses in phase; also recorded: only recovery curves
phase response ([2]; glutamate pulse 50 μM, 90 s): mixed responses between recovery and death
phase response ([2]; glutamate pulse 50 μM, 120 s): irreversible signals
